The source of these data is PubChem BioAssay AID1259408 (Genetic Toxicology Data Bank (GENE-TOX), 2018).

The subject of this series is GENE-TOX genotoxicity assays, various organisms and cells. Briefly: GENE-TOX mutagenicity studies. As to conditions: for call: Assay Type: In vivo carcinogenicity studies.
Setting [1] is: Species/Cell Type: Human lymphocytes, Assay Type: Sister-chromatid exchange (SCE) in vitro, Assay Code: SCLT, Evaluation Type: Evaluation B (Post-1980).
The mark [2] stands for this setting: Species/Cell Type: Salmonella typhimurium (one or more of the five standard strains: TA98, TA100, TA1535, TA1537, and TA1538), Assay Type: Histidine reverse gene mutation, Ames assay, Assay Code: SAL-, Evaluation Type: Evaluation A (Pre-1980).
Where [3] appears, read: Species/Cell Type: Drosophila melanogaster, Assay Type: Sex-linked recessive lethal gene mutation, Assay Code: SRLT, Evaluation Type: Evaluation A (Pre-1980).
[4] abbreviates: Species/Cell Type: Salmonella typhimurium (one or more of the five standard strains: TA98, TA100, TA1535, TA1537, and TA1538), Assay Type: Histidine reverse gene mutation, Ames assay, Assay Code: SALT, Evaluation Type: Evaluation A (Pre-1980).
The mark [5] stands for this setting: Species/Cell Type: Human, Assay Type: Sister-chromatid exchange (SCE) in vitro, Assay Code: SC1+D, Dose Response: With dose response, Evaluation Type: Evaluation B (Post-1980).
Setting [6] is: Species/Cell Type: Nonhuman, Assay Type: Sister-chromatid exchange (SCE) in vitro, Assay Code: SC2T, Evaluation Type: Evaluation B (Post-1980).

Calls of active or inactive are those of the source. No rule for the calls is given here.

On to `Cc1cccc(O)c1C`, for which the mutagenic call reads like this: under setting [1], “no conclusion”; (Species/Cell Type: Human, Assay Type: Sister-chromatid exchange (SCE) in vitro, Assay Code: SC1T, Evaluation Type: Evaluation B (Post-1980)) “no conclusion”.

Consider `Oc1ccc(N=Nc2ccccc2)cc1`, for which the mutagenic call under setting [2] is “inactive; negative”.

Take `Cc1ccc(O)cc1`: the mutagenic call runs as follows: (Species/Cell Type: Allium cepa, Assay Type: Chromosome aberrations, Assay Code: ALCT, Evaluation Type: Evaluation A (Pre-1980)) “no conclusion”; under setting [1], “no conclusion”; (Species/Cell Type: Human, Assay Type: Sister-chromatid exchange (SCE) in vitro, Assay Code: SC1-, Evaluation Type: Evaluation B (Post-1980)) “inactive; negative”; (Species/Cell Type: Nonhuman, Assay Type: Sister-chromatid exchange (SCE) in vivo, Assay Code: SC3T, Evaluation Type: Evaluation B (Post-1980)) “no conclusion”.

Turning to `Nc1ccnc(=O)[nH]1`, the mutagenic call under setting [3] was “no conclusion”.

For `Cc1cc2ccccc2c2cc(F)c3ccccc3c12`, the mutagenic call under setting [4] is listed as “no conclusion”.

`CCc1cccc(CC)c1N(COC)C(=O)CCl`: for the setting “Species/Cell Type: Saccharomyces cerevisiae, Assay Type: Mitotic recombination or gene conversion, Assay Code: YEC+*, Activation: With metabolic activation, Evaluation Type: Evaluation A (Pre-1980)”, the mutagenic call is “active; positive”.

Consider `CCOP(=S)(OCC)Oc1nc(Cl)c(Cl)cc1Cl`, for which the mutagenic call was “no conclusion” under setting [3]; “active; positive” (Species/Cell Type: Escherichia coli polA (W3119 vs P3478), Assay Type: Rec-assay, DNA effects (bacterial DNA repair), Assay Code: RE1+, Evaluation Type: Evaluation A (Pre-1980)); “inactive; negative” (Species/Cell Type: Human diploid fibroblasts, Assay Type: Unscheduled DNA synthesis (UDS) in vitro, DNA effects, Assay Code: UDH-, Evaluation Type: Evaluation A (Pre-1980)); “active; positive” under setting [5]; “no conclusion” under setting [6]; “inactive; negative” (Species/Cell Type: Nonhuman, Assay Type: Sister-chromatid exchange (SCE) in vivo, Assay Code: SC3-, Evaluation Type: Evaluation B (Post-1980)). For the same compound, the mutagenic call (Species/Cell Type: Saccharomyces cerevisiae, Assay Type: Mitotic recombination or gene conversion, Assay Code: YEH-, Evaluation Type: Evaluation A (Pre-1980)) was “inactive; negative” and the mutagenic call under setting [4] is reported as “no conclusion”.

Regarding `Cc1c[nH]c(=O)[nH]c1=O`, the mutagenic call under setting [3] was “no conclusion” and the mutagenic call under setting [6] is given as “no conclusion”.

With `CCNCCNc1ccc(CO)c2sc3ccccc3c(=O)c12`, the mutagenic call (Species/Cell Type: Fischer rat embryo (RLV/1706) cells, Assay Type: Cell transformation, viral enhanced, Assay Code: CTR+, Evaluation Type: Evaluation A (Pre-1980)) is “active; positive”.

As to `O=C(O)C1(O)C[C@@H](O)C(O)[C@H](O)C1` (some centres not stated), under setting [2], the mutagenic call is “inactive; negative”.

Regarding `CC(=O)[O-].CC(=O)[O-].[OH-].[OH-].[OH-].[OH-].[Pb+2].[Pb+2].[Pb+2]`, the call (Species/Cell Type: Nonhuman, Assay Code: CCG+, Evaluation Type: Evaluation A (Pre-1980)) was “active; positive”. The mutagenic call (Species/Cell Type: Rodents, Sex: Male, Assay Type: Dominant lethal test, Assay Code: DLTT, Evaluation Type: Evaluation A (Pre-1980)) was “no conclusion”.

Take `C(=C\c1ccccc1)/c1ccccc1`: under setting [2], the mutagenic call was “inactive; negative”.

With `CN1CCN(CC(=O)NN)CC1`, the mutagenic call (Species/Cell Type: Escherichia coli WP2, Assay Type: Tryptophan reverse gene mutation, Assay Code: WP2-, Evaluation Type: Evaluation A (Pre-1980)) was “inactive; negative” and the mutagenic call (Species/Cell Type: Saccharomyces cerevisiae, Assay Type: Mitotic recombination or gene conversion, Assay Code: YEC-*, Activation: With metabolic activation, Evaluation Type: Evaluation A (Pre-1980)) is “inactive; negative”.

For `O=Cc1ccc(C(=O)O)cc1`, where the note is “Species/Cell Type: Syrian hamster embryo (SA7/SHE) cells, Assay Type: Cell transformation, viral enhanced, Assay Code: CT7+, Evaluation Type: Evaluation A (Pre-1980)”, the mutagenic call was “active; positive”.

Turning to `NC(=O)C#CC(N)=O`, the mutagenic call (Species/Cell Type: Bacillus subtilis (H17 vs M45), Assay Type: Rec-assay, spot test, DNA effects (bacterial DNA repair), Assay Code: REW-, Evaluation Type: Evaluation A (Pre-1980)) is “inactive; negative”.

Take `C1CN1c1nc(N2CC2)nc(N2CC2)n1`: the mutagenic call is “active; positive” (Species/Cell Type: Allium cepa, Assay Type: Chromosome aberrations, Assay Code: ALC+, Evaluation Type: Evaluation A (Pre-1980)); “inactive; negative” (Species/Cell Type: Arabidopsis species, Assay Type: Gene mutation, Assay Code: ARM-, Evaluation Type: Evaluation A (Pre-1980)); “active; positive” (Species/Cell Type: Drosophila melanogaster, Assay Type: Sex-linked recessive lethal gene mutation, Assay Code: SRL+, Evaluation Type: Evaluation A (Pre-1980)); “active; positive” (Species/Cell Type: Drosophila melanogaster, Sex: Male, Assay Type: Heritable translocation test, chromosome aberrations, Assay Code: DHT+, Evaluation Type: Evaluation A (Pre-1980)); “active; positive” (Species/Cell Type: F1 mouse, Sex: Male, Assay Type: Sperm morphology, Assay Code: SPF+, Evaluation Type: Evaluation A (Pre-1980)); “active; positive” (Species/Cell Type: Human lymphocytes, Assay Type: Sister-chromatid exchange (SCE) in vitro, Assay Code: SCL+, Evaluation Type: Evaluation B (Post-1980)). Further, the mutagenic call was “active; positive” (Species/Cell Type: Human, Assay Type: Sister-chromatid exchange (SCE) in vitro, Assay Code: SC1+, Evaluation Type: Evaluation B (Post-1980)); “active; positive” (Species/Cell Type: Mammalian germ cells, Sex: Male, Assay Type: Chromosome aberrations in vivo, Assay Code: CY9+, Evaluation Type: Evaluation A (Pre-1980)); “active; positive” (Species/Cell Type: Mammalian oocytes or early embryo, Assay Type: Chromosome aberrations in vivo, Assay Code: CYO+, Evaluation Type: Evaluation A (Pre-1980)); “active; positive” (Species/Cell Type: Mammalian polychromatic erythrocytes, Assay Type: Micronucleus test, chromosome aberrations, Assay Code: MNT+, Evaluation Type: Evaluation A (Pre-1980)); “active; positive” (Species/Cell Type: Mouse germ cells, Sex: Male, Assay Type: Unscheduled DNA synthesis (UDS) in vivo, DNA effects, Assay Code: UDT+, Evaluation Type: Evaluation A (Pre-1980)); “no conclusion” (Species/Cell Type: Mouse, Sex: Female, Assay Type: Spot test, gene mutation, Assay Code: MSTT, Evaluation Type: Evaluation A (Pre-1980)). The mutagenic call by setting is: (Species/Cell Type: Mouse, Sex: Male, Assay Type: Heritable translocation test, chromosome aberrations, Assay Code: HTT+, Evaluation Type: Evaluation A (Pre-1980)) “active; positive”; (Species/Cell Type: Mouse, Sex: Male, Assay Type: Specific locus test, gene mutation, Assay Code: SLT+, Evaluation Type: Evaluation A (Pre-1980)) “active; positive”; (Species/Cell Type: Mouse, Sex: Male, Assay Type: Sperm morphology, Assay Code: SPI+, Evaluation Type: Evaluation A (Pre-1980)) “active; positive”; (Species/Cell Type: Nonhuman bone marrow, Assay Type: Chromosome aberrations, in vivo, Assay Code: CY#+, Evaluation Type: Evaluation A (Pre-1980)) “active; positive”; (Species/Cell Type: Nonhuman, Assay Type: Sister-chromatid exchange (SCE) in vitro, Assay Code: SC2+D, Dose Response: With dose response, Evaluation Type: Evaluation B (Post-1980)) “active; positive”; (Species/Cell Type: Nonhuman, Assay Type: Sister-chromatid exchange (SCE) in vivo, Assay Code: SC3+D, Dose Response: With dose response, Evaluation Type: Evaluation B (Post-1980)) “active; positive”. Moreover, the mutagenic call reads like this: (Species/Cell Type: Rabbit, Sex: Male, Assay Type: Sperm morphology, Assay Code: SPRT, Evaluation Type: Evaluation A (Pre-1980)) “no conclusion”; (Species/Cell Type: Rodents, Sex: Male, Assay Type: Dominant lethal test, Assay Code: DLT+D, Dose Response: With dose response, Evaluation Type: Evaluation A (Pre-1980)) “active; positive”; (Species/Cell Type: Saccharomyces cerevisiae, Assay Type: Forward and reverse gene mutation, mitotic recombination and gene conversion, host-mediated assay, Assay Code: HME+, Evaluation Type: Evaluation A (Pre-1980)) “active; positive”; (Species/Cell Type: Saccharomyces cerevisiae, Assay Type: Forward gene mutation, Assay Code: YEF+, Evaluation Type: Evaluation A (Pre-1980)) “active; positive”; (Species/Cell Type: Saccharomyces cerevisiae, Assay Type: Mitotic recombination or gene conversion, Assay Code: YEC+, Evaluation Type: Evaluation A (Pre-1980)) “active; positive”; (Species/Cell Type: Saccharomyces cerevisiae, Assay Type: Mitotic recombination or gene conversion, Assay Code: YEH+, Evaluation Type: Evaluation A (Pre-1980)) “active; positive”. The mutagenic call was “active; positive” (Species/Cell Type: Saccharomyces cerevisiae, Assay Type: Reverse gene mutation, Assay Code: YER+, Evaluation Type: Evaluation A (Pre-1980)) and “active; positive” (Species/Cell Type: Vicia faba, Assay Type: Chromosome aberrations, Assay Code: VIC+, Evaluation Type: Evaluation A (Pre-1980)). Besides, under “Species/Cell Type: Nonhuman, Assay Code: CCG+L, Evaluation Type: Evaluation A (Pre-1980)”, the call was “active; positive”.

Consider `C/C=C/c1cn([C@H]2C[C@H](O)[C@@H](CO)O2)c(=O)[nH]c1=O`, for which the mutagenic call under setting [5] is “active; positive”.
